Assay results: the NIST ThermoML archive (doi:10.1016/j.jct.2012.06.010)
Numbers after ± are expanded uncertainties.

What was measured:
[1] = molar heat capacity at constant pressure; details: 101.33 kPa, Small sample (50 mg) DSC
[2] = DTA
[3] = Molar enthalpy of transition or fusion; details: DSC

O=C(O)c1cccnc1 [3-carboxylpyridine]
[1]
Details	molar heat capacity at constant pressure [J/K/mol]
296.01 K, Crystal 2	139.9 ± 12
298.06 K, Crystal 2	141.2 ± 11
303.2 K, Crystal 2	144.2 ± 10
308.34 K, Crystal 2	147 ± 9.4
313.48 K, Crystal 2	149.4 ± 9.4
318.62 K, Crystal 2	152.3 ± 4.5
323.76 K, Crystal 2	154.8 ± 8.7
328.9 K, Crystal 2	156.5 ± 9.7
334.04 K, Crystal 2	158.2 ± 11
339.18 K, Crystal 2	159.8 ± 12
343.24 K, Crystal 2	160.4 ± 12
348.38 K, Crystal 2	163.3 ± 12
353.52 K, Crystal 2	165.9 ± 6.8
358.66 K, Crystal 2	167.9 ± 6.6
363.8 K, Crystal 2	170 ± 6.7
368.94 K, Crystal 2	171.5 ± 6.7
374.08 K, Crystal 2	173.2 ± 8.8
379.22 K, Crystal 2	175.4 ± 8.4
384.37 K, Crystal 2	177.6 ± 8
389.51 K, Crystal 2	179.4 ± 7.6
394.65 K, Crystal 2	181.2 ± 12
399.79 K, Crystal 2	183.5 ± 13
404.93 K, Crystal 2	185.8 ± 13
410.07 K, Crystal 2	189.4 ± 9.8
415.21 K, Crystal 2	194.3 ± 8.3
420.35 K, Crystal 2	198 ± 8.3
425.49 K, Crystal 2	201.7 ± 8.3
430.63 K, Crystal 2	205.3 ± 7.4
435.77 K, Crystal 2	212.1 ± 15
440.91 K, Crystal 2	219.1 ± 13
448.1 K, Crystal 2	231.3 ± 18
449.13 K, Crystal 2	240.6 ± 13
450.16 K, Crystal 2	254.7 ± 12
451.19 K, Crystal 2	273.6 ± 17
452.22 K, Crystal 2	292.5 ± 26
453.24 K, Crystal 2	334.7 ± 38
454.27 K, Crystal 2	418.6 ± 38
455.3 K, Crystal 2	440.3 ± 14
456.33 K, Crystal 1	382.6 ± 41
457.36 K, Crystal 1	326.3 ± 33
458.38 K, Crystal 1	297.2 ± 28
459.41 K, Crystal 1	280.2 ± 22
460.44 K, Crystal 1	263.1 ± 16
461.47 K, Crystal 1	251.7 ± 14
462.5 K, Crystal 1	245.7 ± 15
463.52 K, Crystal 1	239.8 ± 16
464.55 K, Crystal 1	235.7 ± 17
465.58 K, Crystal 1	233.6 ± 18
466.61 K, Crystal 1	231.4 ± 18
467.64 K, Crystal 1	229.5 ± 16
468.66 K, Crystal 1	227.8 ± 11
469.69 K, Crystal 1	226.1 ± 7.9
479.97 K, Crystal 1	231.6 ± 12
482.03 K, Crystal 1	232.2 ± 11
487.17 K, Crystal 1	233.6 ± 8.1
492.31 K, Crystal 1	235.1 ± 8.7
497.45 K, Crystal 1	237.2 ± 9.6
500.53 K, Crystal 1	245.9 ± 14
503.62 K, Crystal 1	254.7 ± 20
504.65 K, Crystal 1	280.5 ± 51
505.67 K, Crystal 1	306.3 ± 83
506.7 K, Crystal 1	422.7 ± 250
507.73 K, Crystal 1	1073.5 ± 1600
508.76 K, Crystal 1	7052.2 ± 11000
510.81 K, Liquid	1773.6
511.84 K, Liquid	309.8 ± 33
512.87 K, Liquid	307.2 ± 22
515.95 K, Liquid	307.4 ± 8.2
518.01 K, Liquid	308.6 ± 8.1
523.15 K, Liquid	311.5 ± 8.4
528.29 K, Liquid	314.4 ± 9.5
531.37 K, Liquid	316.2 ± 11

Details	Molar enthalpy of transition or fusion, [3] [kJ/mol]	Triple point temperature, [2] [K]
Crystal 1	28.2 ± 0.6	509.91 ± 0.39
Crystal 2	0.9 ± 0.22	455 ± 0.5
